Measured values published in patent US20260327211A1, “MODULATORS OF A POTASSIUM CHANNEL AND OF TRPV1 CHANNEL AND USES THEREOF” (Bsense Bio Therapeutics Ltd., priority 2023, published 2026).
Where two headings read alike, the source gives them in different places.

Experiments:
[1] = target: T1, opioid delta receptor (Homo sapiens, UniProt P41143); assay: Functional selectivity panel, opioid delta receptor; format: biochemical
T1 construct: Eurofins DiscoverX, USA
Experimental: (§1) A broad panel of 78 recombinant targets was tested for pharmacologic activity in vitro through a variety of functional assays (Eurofins DiscoverX, USA), as part of the National Institute of Neurological Disorders and Stroke (NINDS) Preclinical Screening Platform for Pain (PSPP) program. The biological targets for the in vitro profiling have been selected based on avoiding opioid receptor stimulation and targets known to be associated with adverse events or targeted by drugs of abuse. […] For each test, a reference compound was evaluated at the target of interest as a positive control.

[2] = system: rats; assay: Core body temperature; format: in vivo, rat
Experimental: Core Body Temperature: Following two days of habituation to the measurement method, the body temperature was measured on study day for baseline values and then again post-dosing in the time points indicated in the figure. Body temperature was measured using a probe gently inserted into the animal anus using a corn oil lubricant (C8267, Sigma-Aldrich, IL).

[3] = target: T2, CYP2C19 (Homo sapiens, UniProt P33261); assay: CYP inhibition / time-dependent inhibition, CYP2C19_S-Mephenytoin; format: in vitro ADME; conditions: role: inhibitor
T2 construct: pre-incubation of the human liver microsomes with the test compound; tissue Corning; host or cells: human liver microsomes
Experimental: The time-dependent inactivation potency of the test compound to CYP enzymatic activities was assessed by the pre-incubation of the human liver microsomes with the test compound in the presence and absence of NADPH, followed by the incubation with the discrete marker substrates, as follows.
Pre-incubation with human liver microsomes (HLMs): The TDI inactivation potency on CYP enzymatic activities was evaluated through pre-incubation with HLMs (Corning). A liver microsome mixture at a concentration of 0.1 mg/mL, and the test compound at 8 different concentrations (0, 0.05, 0.165, 0.5, 1.65, 5.0, 16.5, or 50.0 μM) was warmed at 37° C. for 10 minutes. Concurrently, a set of known time-dependent inactivators was also prepared in duplicate for comparison. Following this, NADPH (1.0 mM) was added to one group (Group 1), and an equal volume of potassium phosphate buffer to the second group (Group 2), marking the beginning of a 30-minute pre-incubation at 37° C.
Incubation: After pre-incubation, the marker substrate, or marker substrate plus NADPH was added to the mixture, thereby initiating the incubation. The duration of the incubation was dependent on the type of CYP isoform being evaluated. For example, with the CYP3A isoform, the mixture was incubated over 3 minutes utilizing midazolam as the marker substrate (2.0 μM), verapamil as the standard inactivator (3.5 μM).
Termination of Reaction: Following the incubation, ice-cooled acetonitrile containing the internal standard (IS) was added to halt the reactions. Metabolites generated from the marker substrates were then measured via LC-MS/MS, assessed based on peak area ratios of the analyte to IS.

[4] = target: T3, Kv7.1 (Homo sapiens, UniProt P51787); assay: Kv7.1; format: biochemical
T3 construct: Eurofins DiscoverX, USA (assay provider)
Experimental: as §1

[5] = target: T4, kappa opioid receptors (Homo sapiens, UniProt P41145); assay: Functional selectivity panel, kappa opioid receptors; format: biochemical
T4 construct: Eurofins DiscoverX, USA
Experimental: as §1

[6] = system: Spared Nerve Injury (SNI) rats; assay: Spared Nerve Injury (SNI) model, von Frey; format: in vivo, rat
Experimental: All animal experiments were carried out according to the Guide for the Care and Use of Laboratory Animals (2011 edition) and approved by the Israel National Institutional Animal Care and Use Committee (IACUC). Young adult male SD rats (Envigo RMS, Israel), were used for in vivo efficacy: Spared Nerve Injury (SNI), Distal Tibial Injury (DTI) and Post-operative Pain (POP), 200-220 grams, Chronic Post-Ischemia Pain (CPIP) 275-325 grams, Monosodium iodoacetate-induced osteoarthritis (MIA-OA) 180-220 grams; for in vivo safety: 200-250 grams at study initiation. […] The health status of the animals used in this study was examined upon their arrival. Only animals in good health were acclimatized to laboratory conditions and were used in the studies. All studies were performed following at least five days of animal acclimation. During acclimation and throughout the entire study duration, animals were housed within a limited-access rodent facility and kept in groups with a maximum of 2-3 rats per polypropylene cage. The cages were fitted with solid bottoms and filled with sterile wood shavings as bedding material. Animals were provided ad libitum with a commercial, sterile rodent diet and had free access to drinking water that was supplied to each cage via polyethylene bottles with stainless steel sipper tubes. A feed lot analysis of the diet batch used in the study was included in the archives with the study data. Water was monitored periodically. Plastic cylinders for playing and hiding and wooden balls or sticks were added to the cages for environmental enrichment.
SNI: The SNI procedure consisted of ligating and dissecting the tibial and common peroneal nerves, thus sparing the sural nerve. Prior to surgery, a dose of 0.03 mg/kg buprenorphine (Temgesic®) was administered to animals as a prophylaxis to alleviate the operative and postoperative pain unrelated to neuropathy. Next, animals were anesthetized with a combination of medetomidine/ketamine sodium IP. While under anesthesia a medio caudal incision of 4-5 mm parallel to the left femur was cut on shaved and disinfected skin. The sciatic nerve was exposed from underneath the muscle layer and isolated gently from the surrounding connective tissue, using curved and blunt forceps. The tibial and common peroneal nerves were first tightly ligated with double knot of 6-0 silk suture, proximally and immediately distal to the sciatic bifurcation. Thereafter, the nerves which run as a pair as physically attached to each other were cut at sites close to the ligatures, thereby removing a length of approximately 0.5 mm of the nerves, necessary to avoid the formation of any re-connection to the nerves. This procedure led to complete denervation of areas of tibial and peroneal innervation in the plantar paw, while neuropathy was developed upon the sural territories. Special care was taken not to manipulate the sural nerve, which thus was left intact. The muscle layers and skin were sutured, and animals were allowed to recover. 0.03 mg/kg buprenorphine SC was administered on postoperative days 1-2, every 12 hours, starting from the evening of Day 0. Rehydration with 4 ml of sterile saline IP was provided directly after the surgery, continuing twice a day for 7 days. The sural nerve innervates the lateral longitudinal third of the plantar paw and therefore, mechanical sensitivity was assessed in this area.
The selection of animals was performed on day 13 post-operation before animals were placed in their experimental groups. Animals with a pain threshold of <4 grams for an operated leg following Von Frey testing were included in the study. To form homogenous treatment groups, all the selected animals were grouped using a random sampling method on study day 13, to form groups with similar pain threshold mean. For blinding purposes, the researcher who dosed the animals with test items was different than the researcher who conducted the VF tests. […]

[7] = system: rats; assay: Hot plate (53° C.); format: in vivo, rat
Experimental: Hot Plate: Animals were placed on hot plate analgesia meter (IITC Life Science Inc., CA, USA) set to 53±1° C., and the time until the first escape response was observed was recorded. A response was considered when the animals lifted or licked their leg or performed kicking behavior.

T2 sequence (P33261 whole entry): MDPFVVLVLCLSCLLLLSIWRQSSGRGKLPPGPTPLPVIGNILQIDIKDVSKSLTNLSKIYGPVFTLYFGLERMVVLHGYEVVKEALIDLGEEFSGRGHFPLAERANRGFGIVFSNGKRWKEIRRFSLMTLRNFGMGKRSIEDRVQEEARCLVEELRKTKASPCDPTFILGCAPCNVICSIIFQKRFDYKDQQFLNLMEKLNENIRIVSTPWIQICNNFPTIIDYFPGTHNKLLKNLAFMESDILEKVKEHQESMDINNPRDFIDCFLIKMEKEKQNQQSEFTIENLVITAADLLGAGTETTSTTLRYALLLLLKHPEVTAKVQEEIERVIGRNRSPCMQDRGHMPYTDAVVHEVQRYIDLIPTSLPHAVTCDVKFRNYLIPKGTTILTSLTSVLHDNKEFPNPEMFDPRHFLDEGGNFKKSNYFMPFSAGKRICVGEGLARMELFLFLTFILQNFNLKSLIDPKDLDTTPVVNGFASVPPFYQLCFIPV
T4 sequence (P41145 whole entry): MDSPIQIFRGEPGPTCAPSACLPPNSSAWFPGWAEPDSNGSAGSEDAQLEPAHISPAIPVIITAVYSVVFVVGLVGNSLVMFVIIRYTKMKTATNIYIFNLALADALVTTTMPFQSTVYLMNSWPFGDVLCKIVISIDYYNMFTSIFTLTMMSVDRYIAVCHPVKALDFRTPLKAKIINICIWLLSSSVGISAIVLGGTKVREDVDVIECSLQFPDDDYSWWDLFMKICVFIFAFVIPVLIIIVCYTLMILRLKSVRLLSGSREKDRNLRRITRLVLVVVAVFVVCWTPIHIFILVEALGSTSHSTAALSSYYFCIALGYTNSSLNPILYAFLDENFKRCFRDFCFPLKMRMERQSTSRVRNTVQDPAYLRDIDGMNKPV
T1 sequence (P41143 whole entry): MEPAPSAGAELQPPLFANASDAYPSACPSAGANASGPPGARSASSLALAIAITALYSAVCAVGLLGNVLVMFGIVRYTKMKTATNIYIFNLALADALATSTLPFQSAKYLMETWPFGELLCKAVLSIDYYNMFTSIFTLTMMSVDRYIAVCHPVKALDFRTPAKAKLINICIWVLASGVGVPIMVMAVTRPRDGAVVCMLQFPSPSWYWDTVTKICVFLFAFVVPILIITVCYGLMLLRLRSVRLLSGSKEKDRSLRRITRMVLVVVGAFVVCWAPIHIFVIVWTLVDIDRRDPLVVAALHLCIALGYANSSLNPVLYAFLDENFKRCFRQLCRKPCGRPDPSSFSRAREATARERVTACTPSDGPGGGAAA
T3 sequence (P51787 whole entry): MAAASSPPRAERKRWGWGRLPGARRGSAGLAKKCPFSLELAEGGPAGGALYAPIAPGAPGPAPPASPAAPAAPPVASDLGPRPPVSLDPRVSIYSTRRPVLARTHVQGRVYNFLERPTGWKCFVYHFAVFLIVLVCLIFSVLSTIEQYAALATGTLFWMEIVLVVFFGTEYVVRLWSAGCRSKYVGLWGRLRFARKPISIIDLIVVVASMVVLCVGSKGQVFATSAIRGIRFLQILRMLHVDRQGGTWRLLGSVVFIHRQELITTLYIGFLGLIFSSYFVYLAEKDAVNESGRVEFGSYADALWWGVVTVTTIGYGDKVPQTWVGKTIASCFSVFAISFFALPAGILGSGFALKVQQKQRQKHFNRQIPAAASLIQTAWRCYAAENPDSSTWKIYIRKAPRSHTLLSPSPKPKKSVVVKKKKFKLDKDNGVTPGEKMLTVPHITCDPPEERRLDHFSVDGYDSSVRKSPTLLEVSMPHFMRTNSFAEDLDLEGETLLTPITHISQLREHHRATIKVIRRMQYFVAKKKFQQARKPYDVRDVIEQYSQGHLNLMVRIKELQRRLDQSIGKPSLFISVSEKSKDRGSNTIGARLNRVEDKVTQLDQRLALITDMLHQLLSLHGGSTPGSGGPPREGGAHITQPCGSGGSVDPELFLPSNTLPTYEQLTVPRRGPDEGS

Row | IC50 [1] [µM] | Core body temperature ([2]; up to 300 mg/kg, 1-24 hours post-dose) | IC50 ([3]; (+)NADPH pre-incubation, substrate S-mephenytoin, read-out: IC50 (+)NADPH CYP2C19_S-Mephenytoin) [µM] | IC50 ([3]; (−)NADPH pre-incubation, substrate S-mephenytoin, read-out: IC50 (−)NADPH CYP2C19_S-Mephenytoin) [µM] | EC50 ([5]; PAM) [µM] | Hot plate escape latency ([7]; 20 and 50 mg/kg PO, 2-10 hours post-dose) | Compound | Core body temperature ([2]; 20 and 50 mg/kg PO) | Kv7.1 activity ([4]; up to solubility limit) | PWT efficacy ([6]; 2 mg/kg PO) | Reversal of PWT ([6]; 20 mg/kg PO, 4 hour post-dose) [%] | PWT efficacy ([6]; 20 mg/kg PO, up to 8 hour post-dose) | Reversal of mechanical PWT ([6]; 100 mg/kg oral, 6 hour post-dose) [%] | Effect on Opioid-delta ([1]; up to 10 micromolar) | Core body temperature ([2]; up to 300 mg/kg oral) | IC50 ([3]; Table 9, read-out: CYP inhibition IC50 CYP2C19) [µM] | Effect on Kv7.1 ([4]; up to 10 micromolar) | Effect on Opioid kappa ([5]; up to 10 micromolar) | Pain relief in SNI ([6]; 3-30 mg/kg PO) | minimal effective dose ([6]; Rattus norvegicus, po) [mg/kg] | Hot-plate response ([7]; up to 300 mg/kg oral)
1 | 10 | no effects on core body temperature | 18.5 | 15.6 | 7 | no significant effect on escape latency | O=C(Cc1cncc(-n2cc(Cl)c3cc(Cl)cc(Cl)c32)c1)N[C@@H]1COC[C@H]1O [Compound 661] | no significant change in core body temperature | no measurable activity at any concentration tested | although not reaching statistical significance, showed an efficacious trend | 53 | remained statistically significant up to 8 hour post-dose | 47.2 |  |  |  |  |  |  |  | 
2 |  |  |  |  |  |  | O=C(Cc1nccc(-n2cc(Cl)c3cc(Cl)cc(Cl)c32)n1)NC1COCC1O (centres unmarked) [Compound 760] |  |  |  |  |  |  | no effect | displayed safety potential at up to 300 mg/kg oral dosing | > 50 | no effect | no effect | pain relief comparable to Pregabalin's high and impairing dose | 3 to 30 | displayed safety potential at up to 300 mg/kg oral dosing
